Source: the NIST ThermoML archive (doi:10.1007/s10765-009-0610-6)
Numbers after ± are expanded uncertainties.

Conditions: Liquid; for mass density: 101.33 kPa, Vibrating tube method; for speed of sound: Pulse-echo method

Q: Which mass density (292.55 K) does the source give for `BrCCCBr` [1,3-dibromopropane] here?
A: Its mass density is 1980.22 ± 1.2 kg/m3.

Q: And the speed of sound (292.66 K, 100 kPa)?
A: Its speed of sound is 1078.9 ± 1.2 m/s.

Q: And the speed of sound (292.72 K, 15200 kPa)?
A: Its speed of sound is 1114.4 ± 2.3 m/s.

Q: And the speed of sound (292.78 K, 30400 kPa)?
A: Its speed of sound is 1148.6 ± 2.3 m/s.

Q: What about the speed of sound (292.79 K, 45600 kPa) of the same compound?
A: Its speed of sound is 1180.5 ± 2.3 m/s.

Q: And the speed of sound (292.8 K, 60810 kPa)?
A: Its speed of sound is 1210.8 ± 2.3 m/s.

Q: What about the speed of sound (292.8 K, 91220 kPa) of the same compound?
A: Its speed of sound is 1265.8 ± 2.4 m/s.

Q: What about the speed of sound (292.82 K, 76010 kPa) of the same compound?
A: The speed of sound was 1239.1 ± 2.4 m/s.

Q: What about the speed of sound (292.83 K, 101350 kPa) of the same compound?
A: The speed of sound was 1283 ± 2 m/s.

Q: And the mass density (297.98 K)?
A: The mass density was 1970.22 ± 1.2 kg/m3.

Q: And the speed of sound (298.03 K, 76000 kPa)?
A: Its speed of sound is 1227.5 ± 2.4 m/s.

Q: And the speed of sound (298.04 K, 45600 kPa)?
A: The speed of sound was 1167.8 ± 2.3 m/s.

Q: And the speed of sound (298.04 K, 60810 kPa)?
A: The speed of sound was 1198.5 ± 2.4 m/s.

Q: And the speed of sound (298.04 K, 91210 kPa)?
A: Its speed of sound is 1255 ± 2.4 m/s.

Q: And the speed of sound (298.05 K, 30400 kPa)?
A: Its speed of sound is 1135.1 ± 2.3 m/s.

Q: What about the speed of sound (298.07 K, 15210 kPa) of the same compound?
A: Its speed of sound is 1100.1 ± 2.3 m/s.

Q: And the speed of sound (298.08 K, 101330 kPa)?
A: Its speed of sound is 1272.4 ± 2.4 m/s.

Q: What about the speed of sound (298.61 K, 100 kPa) of the same compound?
A: The speed of sound was 1062.6 ± 1.2 m/s.

Q: What about the speed of sound (302.95 K, 15210 kPa) of the same compound?
A: The speed of sound was 1087.4 ± 2.3 m/s.

Q: What about the speed of sound (302.95 K, 30410 kPa) of the same compound?
A: The speed of sound was 1123 ± 2.3 m/s.

Q: And the speed of sound (302.95 K, 45600 kPa)?
A: The speed of sound was 1156.1 ± 2.3 m/s.

Q: What about the speed of sound (302.95 K, 60790 kPa) of the same compound?
A: The speed of sound was 1187.2 ± 2.3 m/s.

Q: And the speed of sound (302.95 K, 76010 kPa)?
A: Its speed of sound is 1216.7 ± 2.4 m/s.

Q: And the speed of sound (302.95 K, 91220 kPa)?
A: The speed of sound was 1244.5 ± 2.4 m/s.

Q: What about the speed of sound (302.95 K, 101350 kPa) of the same compound?
A: The speed of sound was 1262.3 ± 2.4 m/s.

Q: What about the mass density (303.07 K) of the same compound?
A: The mass density was 1961.58 ± 1.2 kg/m3.

Q: And the speed of sound (303.58 K, 100 kPa)?
A: Its speed of sound is 1049 ± 1.2 m/s.

Q: And the mass density (308.02 K)?
A: The mass density was 1952.84 ± 1.2 kg/m3.

Q: And the speed of sound (308.04 K, 76010 kPa)?
A: The speed of sound was 1205.6 ± 2.4 m/s.

Q: And the speed of sound (308.04 K, 91210 kPa)?
A: The speed of sound was 1233.7 ± 2.4 m/s.

Q: What about the speed of sound (308.04 K, 101350 kPa) of the same compound?
A: Its speed of sound is 1251.8 ± 2.4 m/s.

Q: And the speed of sound (308.05 K, 15210 kPa)?
A: The speed of sound was 1074.3 ± 2.3 m/s.

Q: And the speed of sound (308.05 K, 30410 kPa)?
A: The speed of sound was 1110.5 ± 2.3 m/s.

Q: What about the speed of sound (308.05 K, 45620 kPa) of the same compound?
A: Its speed of sound is 1144.2 ± 2.3 m/s.

Q: And the speed of sound (308.05 K, 60820 kPa)?
A: The speed of sound was 1175.8 ± 2.3 m/s.

Q: And the speed of sound (308.67 K, 100 kPa)?
A: The speed of sound was 1035.3 ± 1.2 m/s.

Q: What about the speed of sound (313.41 K, 15230 kPa) of the same compound?
A: Its speed of sound is 1060.7 ± 2.3 m/s.

Q: And the speed of sound (313.41 K, 30410 kPa)?
A: The speed of sound was 1097.5 ± 2.3 m/s.

Q: And the speed of sound (313.41 K, 45610 kPa)?
A: The speed of sound was 1131.7 ± 2.3 m/s.

Q: And the speed of sound (313.41 K, 60800 kPa)?
A: Its speed of sound is 1163.8 ± 2.4 m/s.

Q: What about the speed of sound (313.41 K, 76010 kPa) of the same compound?
A: The speed of sound was 1194 ± 2.4 m/s.

Q: What about the speed of sound (313.42 K, 91200 kPa) of the same compound?
A: Its speed of sound is 1222.6 ± 2.4 m/s.

Q: And the speed of sound (313.42 K, 101330 kPa)?
A: The speed of sound was 1240.8 ± 2.4 m/s.

Q: What about the mass density (314.58 K) of the same compound?
A: The mass density was 1941.18 ± 1.2 kg/m3.

Q: And the speed of sound (314.7 K, 100 kPa)?
A: The speed of sound was 1019 ± 1.2 m/s.

Q: Which speed of sound (292.38 K, 100 kPa) does the source give for `BrCCCCCBr` [1,5-dibromopentane] here?
A: Its speed of sound is 1149.5 ± 1.2 m/s.

Q: What about the speed of sound (292.47 K, 91200 kPa) of the same compound?
A: Its speed of sound is 1354 ± 2.4 m/s.

Q: What about the speed of sound (292.48 K, 30400 kPa) of the same compound?
A: Its speed of sound is 1226.2 ± 2.3 m/s.

Q: What about the speed of sound (292.5 K, 45600 kPa) of the same compound?
A: The speed of sound was 1260.8 ± 2.3 m/s.

Q: What about the speed of sound (292.52 K, 60800 kPa) of the same compound?
A: Its speed of sound is 1293.4 ± 2.4 m/s.

Q: What about the speed of sound (292.53 K, 15210 kPa) of the same compound?
A: The speed of sound was 1189.1 ± 2.3 m/s.

Q: And the speed of sound (292.57 K, 101320 kPa)?
A: Its speed of sound is 1372.2 ± 2.4 m/s.

Q: And the speed of sound (292.59 K, 76010 kPa)?
A: Its speed of sound is 1324.4 ± 2.4 m/s.

Q: And the speed of sound (298 K, 60800 kPa)?
A: The speed of sound was 1281.2 ± 2.4 m/s.

Q: And the speed of sound (298 K, 91200 kPa)?
A: Its speed of sound is 1342.4 ± 2.4 m/s.

Q: And the speed of sound (298 K, 101330 kPa)?
A: Its speed of sound is 1361.6 ± 2.4 m/s.

Q: What about the speed of sound (298.01 K, 45600 kPa) of the same compound?
A: The speed of sound was 1248 ± 2.3 m/s.

Q: And the speed of sound (298.02 K, 30410 kPa)?
A: The speed of sound was 1212.7 ± 2.3 m/s.

Q: And the speed of sound (298.03 K, 15210 kPa)?
A: The speed of sound was 1174.8 ± 2.3 m/s.

Q: What about the speed of sound (298.05 K, 76000 kPa) of the same compound?
A: The speed of sound was 1312.6 ± 2.4 m/s.

Q: And the speed of sound (298.37 K, 100 kPa)?
A: Its speed of sound is 1133 ± 1.2 m/s.

Q: And the speed of sound (303 K, 76000 kPa)?
A: Its speed of sound is 1302 ± 2.4 m/s.

Q: What about the speed of sound (303.01 K, 15200 kPa) of the same compound?
A: The speed of sound was 1162.1 ± 2.3 m/s.

Q: And the speed of sound (303.01 K, 30400 kPa)?
A: The speed of sound was 1200.6 ± 2.3 m/s.

Q: And the speed of sound (303.01 K, 60790 kPa)?
A: The speed of sound was 1270 ± 2.4 m/s.

Q: What about the speed of sound (303.01 K, 91200 kPa) of the same compound?
A: The speed of sound was 1331.8 ± 2.4 m/s.

Q: What about the speed of sound (303.01 K, 101340 kPa) of the same compound?
A: Its speed of sound is 1350.7 ± 2.4 m/s.

Q: And the speed of sound (303.02 K, 45600 kPa)?
A: The speed of sound was 1236.5 ± 2.3 m/s.

Q: What about the speed of sound (303.4 K, 100 kPa) of the same compound?
A: Its speed of sound is 1119.3 ± 1.2 m/s.

Q: And the speed of sound (308.03 K, 15210 kPa)?
A: Its speed of sound is 1148.7 ± 2.3 m/s.

Q: What about the speed of sound (308.03 K, 30410 kPa) of the same compound?
A: Its speed of sound is 1187.7 ± 2.3 m/s.

Q: What about the speed of sound (308.03 K, 45590 kPa) of the same compound?
A: Its speed of sound is 1224 ± 2.3 m/s.

Q: What about the speed of sound (308.05 K, 101330 kPa) of the same compound?
A: Its speed of sound is 1340 ± 2.4 m/s.

Q: What about the speed of sound (308.06 K, 60790 kPa) of the same compound?
A: The speed of sound was 1257.9 ± 2.4 m/s.

Q: And the speed of sound (308.06 K, 76000 kPa)?
A: Its speed of sound is 1290.1 ± 2.4 m/s.

Q: And the speed of sound (308.06 K, 91200 kPa)?
A: The speed of sound was 1320.5 ± 2.4 m/s.

Q: What about the speed of sound (308.38 K, 100 kPa) of the same compound?
A: The speed of sound was 1105.8 ± 1.2 m/s.

Q: And the speed of sound (313.14 K, 76030 kPa)?
A: The speed of sound was 1279.3 ± 2.4 m/s.

Q: What about the speed of sound (313.16 K, 91210 kPa) of the same compound?
A: The speed of sound was 1310.1 ± 2.4 m/s.

Q: What about the speed of sound (313.16 K, 101330 kPa) of the same compound?
A: Its speed of sound is 1330 ± 2.4 m/s.

Q: What about the speed of sound (313.17 K, 45610 kPa) of the same compound?
A: The speed of sound was 1212.3 ± 2.3 m/s.

Q: What about the speed of sound (313.18 K, 60800 kPa) of the same compound?
A: The speed of sound was 1246.8 ± 2.4 m/s.

Q: And the speed of sound (313.2 K, 15210 kPa)?
A: Its speed of sound is 1135.8 ± 2.3 m/s.

Q: What about the speed of sound (313.2 K, 30410 kPa) of the same compound?
A: The speed of sound was 1175.5 ± 2.3 m/s.

Q: What about the speed of sound (314.36 K, 100 kPa) of the same compound?
A: The speed of sound was 1089.7 ± 1.2 m/s.
